In US20010018182A1, “Methods of monitoring disease states and therapies using gene expression profiles” (Rosetta Inpharmatics, Inc., priority 1998, published 2001):

Assays:
[1] = system: yeast Saccharomyces cerevisiae; experiment: growth defect of yeast on methotrexate drug exposure; assay type: cell-based; settings: 100 μM titration of methotrexate
[2] = system: yeast gene YOL031C expression; experiment: gene transcript array mRNA expression response to methotrexate titrations, Hill function fit; assay type: cell-based, Saccharomyces cerevisiae; settings: least squares fit of YOL031C expression response (log10 expression ratio); exposure levels 3, 6, 25, 50, 100, 200 μM
Excerpt: FIG. 2 illustrates an example of perturbation response profiles measured at discrete protein activity levels of dihydrofolate reductase. Specifically, the figure illustrates mRNA expression levels of 30 genes of the yeast Saccharomyces cerevisiae that, of the approximately 6000 genes in the genome of this yeast, had the largest expression changes in response to six different titrations of the drug methotrexate, which is known to act primarily by disrupting the activity of dihydrofolate reductase. These gene expression level measurements were made with gene transcript arrays, as described in Section 5.4. The perturbation response profiles in FIG. 2 can be interpolated according to the methods disclosed in Section 5.3, below, to provide perturbation response profiles for any activity level of dihydrofolate reductase, and are thereby correlated to efficacy of the drug methotrexate.
In model fitting, the perturbation responses are interpolated by approximating each by a single parameterized function. An exemplary model-fitting function appropriate for approximating transcriptional state data is the Hill function, which has adjustable parameters a, u0, and n. [formula]
the adjustable parameters are selected independently for each cellular constituent of the perturbation response. Preferably, the adjustable parameters are selected so that for each cellular constituent the sum of the squares of the distances H(pl) from Rk(Pl) is minimized. This preferable parameter adjustment method is known in the art as a least squares fit of H( ) to Rk( ). Other possible model functions are based on polynomial fitting, for example by various known classes of polynomials.
Model fitting with a Hill function is illustrated with respect to FIGS. 2 and 3. As discussed, FIG. 2 illustrates an example of perturbation by methotrexate and identified by measurement. […]

SMILES: CN(Cc1cnc2nc(N)nc(N)c2n1)c1ccc(C(=O)N[C@@H](CCC(=O)O)C(=O)O)cc1 [methotrexate]
- growth defect [1]: 50%
- Hill function parameter a [2]: −0.61
- Hill function parameter log10(u0) [2]: 1.26
- Hill function parameter n [2]: 2
